Results taken from patent publication US12612362B2 (SHANXI MEDICAL UNIVERSITY, priority 2021, dated 2026).
Entries after “also recorded” stand apart in the source; their conditions may differ.

Legend:
C57BL/6 mice = assay: Oral glucose tolerance test (OGTT); type: in vivo; conditions: n=7
[1] = system: pancreas islets of the rats; assay: Insulin secretion of isolated rat pancreas islets (insulin radioimmunoassay); conditions: for effect of promoting insulin secretion: 30 min incubation, n=7

In the case of `COc1ccc(C[C@H]2NC[C@H](O)[C@H]2OC(C)=O)cc1` [anisomycin, (2R,3S,4S)-2-[(4-methoxyphenyl)methyl]-3,4-pyrrolidinediol 3-acetate methyl ester], the “tolerance to glucose load (blood glucose curve and AUC in OGTT)” value (C57BL/6 mice; 5 mg/kg intraperitoneally, vs control group) is reported as “improved to different extents”, the “glucose reducing effect (blood glucose curve and AUC in OGTT)” value (C57BL/6 mice; 15 mg/kg intraperitoneally, vs control group and 5 mg/kg) is reported as “more obvious than 5 mg/kg anisomycin in glucose reducing effect” and the “effect of promoting insulin secretion” value ([1]; 2.8 mmol/L glucose (2.8G), 10 μM) is reported as “does not have the effect of promoting insulin secretion; also recorded: does not have the effect of promoting secretion of insulin”. For the same compound, the “effect of promoting insulin secretion” value ([1]; 11.1 mmol/L glucose (11.1G), 1 μM) was “has the significant effect of promoting insulin secretion”, the “effect of promoting insulin secretion” value ([1]; 11.1 mmol/L glucose (11.1G), 10 μM) was “has the significant effect of promoting insulin secretion; also recorded: has the significant effect of promoting secretion of insulin” and the “effect of promoting insulin secretion” value ([1]; 16.7 mmol/L glucose (16.7G), 10 μM) was “can still promote secretion of insulin with significant difference”. The “concentration dependence of promoting insulin secretion” value ([1]; 11.1G, 0.1 μM, 1 μM and 10 μM) was “concentration-dependent effect of promoting insulin secretion”.
